From article PMC8478281, “Targeting the FtsZ Allosteric Binding Site with a Novel Fluorescence Polarization Screen, Cytological and Structural Approaches for Antibacterial Discovery” (Journal of Medicinal Chemistry, 2021)
Converted amounts (≈) assume the structure as drawn.

What was measured:
B. subtilis [1] = assay: Minimal division inhibitory concentration and cell division phenotype, B. subtilis; format: cell-based, Bacillus subtilis; conditions: Bacillus subtilis, read-out: MDC B. subtilis
Method: (§1) B. subtilis 168 and Staphylococcus spp. were grown in cation adjusted Mueller–Hinton broth (CAMHB; Becton, Dickinson and Company) at 37 °C. B. subtilis SU570 were grown in the same medium at 30 °C. In all cases, the cells were grown to an absorbance of 0.1–0.2 at 600 nm and then incubated either with the compounds or DMSO vehicle. Microscopy assays and cell measurement were performed as previously described.[31] MIC values were determined by a broth macrodilution method.[51] MBC values were determined as the lowest concentration of inhibitor at which there was a 99.9% reduction in colony-forming units/mL compared to the inoculum. To construct a S. aureus strain expressing FtsZ-mCherry, the plasmid pCN-ftsZmch[9] was electroporated into RN4220 and 0.1 μM cadmium chloride (Sigma-Aldrich) was used to induce the expression of the construct under the control of the Pcad promoter.

[2] = molecular target: T1, stabilized polymers of FtsZ from B. subtilis (Bacillus subtilis, UniProt P17865); assay: Competition assay: displacement of probe (R)-5 from stabilized BsFtsZ-GMPCPP polymers; format: binding; conditions: for Kd: stabilized polymers of FtsZ from B. subtilis, probe (R)-5, mean ± SEM, read-out: KD
T1 construct: made in house
T1 sequence (P17865 whole entry): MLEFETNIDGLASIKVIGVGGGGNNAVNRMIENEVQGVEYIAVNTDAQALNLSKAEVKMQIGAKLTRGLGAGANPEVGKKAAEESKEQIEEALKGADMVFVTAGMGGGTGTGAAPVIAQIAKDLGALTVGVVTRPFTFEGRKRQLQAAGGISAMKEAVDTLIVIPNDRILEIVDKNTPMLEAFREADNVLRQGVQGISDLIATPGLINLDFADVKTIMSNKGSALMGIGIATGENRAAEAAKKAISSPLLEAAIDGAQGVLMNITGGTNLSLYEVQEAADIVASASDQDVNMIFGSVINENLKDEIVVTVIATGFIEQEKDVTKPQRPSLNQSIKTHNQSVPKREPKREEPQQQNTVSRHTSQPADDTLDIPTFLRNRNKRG
Method: (§2) FtsZ (10–15 μM) was assembled in HEPES buffer, 10 mM MgCl2, 50 μM GMPCPP at 25 °C for 10 min, and then 0.15% (v/v) glutaraldehyde[36] (distilled grade for microscopy, TAAB Laboratories, U.K.) was added to the solution that was incubated at 25 °C for 10 min more. (This was the minimal glutaraldehyde concentration determined to stabilize FtsZ polymers specifically binding probe 1.) The remains of the cross-linking agent were quenched by adding 60 mM NaBH4, the sample was incubated on ice for 10 min and degassed.[36] Cross-linked polymers were centrifuged for 10 min at 8200g (5000 rpm) and 4 °C in 15 mL Falcon tubes employing a Rotina 380R (Hettich) centrifuge, the supernatant was removed and the pellet was resuspended in the same volume of HEPES buffer, 10 mM MgCl2, containing 5 μM GMPCPP. Fixed FtsZ polymers were active in binding assays after more than 2 days at 4 °C; they could also be frozen in liquid nitrogen with a small loss of binding capacity. […] Cross-linked polymers of SaFtsZ were similarly prepared.
(§3) Competition assays were performed by measuring, through the decrease in fluorescence anisotropy, the displacement of the fluorescent probes from stabilized FtsZ polymers. Increasing concentrations of competing ligands were added to the mixtures of cross-linked FtsZ polymers (10–15 μM) with probe 1 (3 μM), 7–8 μM FtsZ polymers with probe (S)-2 (3 μM), or 2–3 μM FtsZ polymers with (R)-5 (3 μM). HEPES buffer with 10 mM MgCl2 and 0.1 mM GMPCPP was employed, with a final volume of 0.5 mL, and the anisotropy measured at 25 °C. Under these conditions, the initial fraction of the probe bound was between 0.4 and 0.5. The fraction of the probe bound (Vb) was calculated [drawing 1] where rfree and rmax are the anisotropy values of the free and bound probes, respectively, and R is the ratio between the fluorescence intensities of the bound and free probe (Table S1). The binding data were plotted against the competing ligand concentration and fitted by competition equilibrium of the ligand and the probe for the same binding site. The resulting system of equations[50] was numerically solved using the Equigra v. 5.0 program,[33] which provided the best-fitted value of the competitor binding constant.

[3] = Solubility in HEPES buffer with 2% DMSO, spectrophotometric; format: physicochemical; conditions: HEPES buffer containing 2% DMSO, 25 °C, aqueous buffer, kinetic from dmso stock; HEPES buffer pH 6.8 containing 2% DMSO
Method: 3.2. Solubility of Compounds. Stock solutions of compounds were prepared in
DMSO (spectroscopic grade, Merck) a nd stored at -20 °C. Compound solubility in 50
mM HEPES-KOH, 50 mM KCl, 1 mM EDTA, pH 6.8 (HEPES buffer) containing 2%
DMSO was determined spectrophotometrically, monitoring the linear correlation
between the absorbance and the compound concentration and the absence of light
scattering. The solutions were optionally centrifuged at 100000 rpm for 20 min at 25 °C
in a TLA100 rotor with a Beckman Optima Max -XP ultracentrifuge.

S. aureus Mu50 [4] = assay: Minimal growth inhibitory concentration (broth macrodilution), S. aureus Mu50; format: cell-based, Staphylococcus aureus; conditions: Staphylococcus aureus, MU50, read-out: MIC S. aureus Mu50
Method: as §1

[5] = test system: Staphylococcus haemolyticus; assay: Minimal growth inhibitory concentration, S. haemolyticus; format: cell-based
Method: as §1

S. aureus Mu50 [6] = assay: Minimal division inhibitory concentration, S. aureus Mu50; format: cell-based; conditions: Staphylococcus aureus, MU50, read-out: MDC S. aureus Mu50
Method: as §1

[7] = test system: Staphylococcus epidermidis; assay: Minimal growth inhibitory concentration, S. epidermidis; format: cell-based
Method: as §1

[8] = test system: S. aureus subsp. aureus (ATCC 25923); assay: Minimal growth inhibitory concentration, S. aureus subsp. aureus; format: cell-based; conditions: Staphylococcus aureus, ATCC25923
Method: as §1

B. subtilis [9] = assay: Minimal growth inhibitory concentration (broth macrodilution), B. subtilis; format: cell-based, Bacillus subtilis; conditions: Bacillus subtilis, read-out: MIC B. subtilis
Method: as §1

B. subtilis 168 = assay: Cell length of B. subtilis 168 incubated with FtsZ inhibitors; format: cell-based, Bacillus subtilis; parameters: unit of the concentration uncertain; unit not given here; conditions: B. subtilis 168, 3 h
Method: Figure 4 Fluorescence anisotropy screen for FtsZ allosteric inhibitors combined with cell-based methods. (A) Screen for FtsZ inhibitors employing the fluorescence anisotropy of probe (S)-2 (3 μM) and stabilized FtsZ-GMPCPP polymers (8 μM binding sites). […] Control values with the corresponding concentrations of dimethyl sulfoxide (DMSO) vehicle (2% void and gray circles; 4%, black circle) are also shown. […] Raw data plots (n ≥ 30) are shown with the mean values marked (statistics in Table S2). The cells were incubated for 3 h with each compound, and cell lengths were measured. (D) Representative phase-contrast images of cells after 3 h with 7 or 9 (0.75 mM each). (E) Cellular localization of FtsZ-GFP in B. subtilis SU570 following growth for 1.5 h in the absence (inset) and presence of 7 (0.2 mM). Bars, 10 μm.
as §1, with “MBC values were determined as the lowest concentration of inhibitor at which there was a 99.9% reduction in colony-forming units/mL compared to the inoculum.” left out, “promoter. […]” for “promoter.”

[10] = molecular target: T2, stabilized SaFtsZ polymers (Staphylococcus aureus, UniProt P0A031); assay: Competition assay with stabilized SaFtsZ polymers; format: binding; conditions: read-out: KD (in parenthesis) (converted)
T2 construct: Full-length S. aureus FtsZ (SaFtsZ); made in house
T2 sequence (P0A031 whole entry): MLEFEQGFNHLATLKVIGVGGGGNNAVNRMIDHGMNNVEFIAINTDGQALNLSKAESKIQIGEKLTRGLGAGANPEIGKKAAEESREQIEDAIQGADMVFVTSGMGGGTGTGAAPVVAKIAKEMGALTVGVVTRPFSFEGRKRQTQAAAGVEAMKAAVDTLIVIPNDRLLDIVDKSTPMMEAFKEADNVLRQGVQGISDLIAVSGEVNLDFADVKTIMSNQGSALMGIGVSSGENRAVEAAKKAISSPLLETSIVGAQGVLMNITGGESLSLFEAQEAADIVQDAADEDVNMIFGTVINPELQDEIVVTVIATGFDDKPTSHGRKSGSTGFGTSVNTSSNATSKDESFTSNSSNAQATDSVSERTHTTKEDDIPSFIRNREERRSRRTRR
Method: Full-length S. aureus FtsZ (SaFtsZ) and the truncated protein SaFtsZ(12–315) were purified as described.[34] SaFtsZ was assembled in 50 mM MES, 50 mM KCl, 1 mM EDTA, pH 6.5 plus 10 mM MgCl2, and 0.1 mM GMPCPP.
as §2, §3

MTT cytotoxicity assay = format: cell-based; conditions: human, IMR90 lung fibroblast cells, relative to vehicle; for viability at 100 µM: IMR90, 100 µM
Method: The sensitivity of the IMR90 cell line to compounds was tested through a standard 3-(4,5-dimethylthiazol-2-yl)-2,5-diphenyltetrazolium bromide (MTT) assay.[52] The results were reported as the viability percentage of the tested compound relative to vehicle (DMSO), obtained from two or three independent experiments performed in triplicate.

S. aureus = assay: Minimal bactericidal concentration; format: cell-based; conditions: Staphylococcus aureus; 99.9% reduction in colony-forming units/mL
Method: as §1

[11] = molecular target: T3, stabilized FtsZ-GMPCPP polymers (BsFtsZ) (Bacillus subtilis, UniProt P17865); assay: Competition assay: displacement of probe (S)-2 from stabilized FtsZ-GMPCPP polymers; format: binding; conditions: KD, (S)-2 3 μM, 8 μM binding sites
T3 construct: made in house
T3 sequence (P17865 whole entry): as the sequence (P17865 whole entry) above
Method: as §2, §3

Row | Structure (SMILES) | minimal effective concentration (B. subtilis [1]) | Kd [2] | solubility [3] | MIC (S. aureus Mu50 [4]) | MIC [5] | minimal effective concentration (S. aureus Mu50 [6]) | MIC [7] | MIC [8] | MIC (B. subtilis [9]) | length (B. subtilis 168; 1 (unit uncertain) as printed) | Kd [10] | viability at 25 µM (MTT cytotoxicity assay; IMR90, 25 µM) | MBC (S. aureus) | Kd [11] | viability at 100 µM (MTT cytotoxicity assay) | length (B. subtilis 168; 10 (unit uncertain) as printed) | fold weaker affinity and MDC than the (R)-enantiomer [2] | viability at 50 µM (MTT cytotoxicity assay; IMR90, 50 µM) | length (B. subtilis 168; 2.5 (unit uncertain) as printed) | length (B. subtilis 168; 5 (unit uncertain) as printed)
1 | CCCC(COc1ccc(F)c(C(N)=O)c1F)Nc1cccc(C(F)(F)F)c1 (racemic) [rac-26, 2,6-Difluoro-3-[(2-{[3-(trifluoromethyl)phenyl]amino}pentyl)oxy]benzamide] | 2.5 µM | 1.1 ± 0.1 µM | 50 µM (≈ 20.1 µg/mL) | 50 µM (≈ 20.1 µg/mL) | 50 µM (≈ 20.1 µg/mL) | 25 µM | 50 µM (≈ 20.1 µg/mL) | 100 µM (≈ 40.2 µg/mL) | 5 µM (≈ 2.01 µg/mL) | – | – | – | – | – | – | – | – | – | – | –
2 | CCC[C@H](COc1ccc(F)c(C(N)=O)c1F)Nc1cccc(C(F)(F)F)c1 [(R)-26] | 1 µM | 0.2 ± 0.1 µM | 100 µM (≈ 40.2 µg/mL) | 25 µM (≈ 10.1 µg/mL) | 25 µM (≈ 10.1 µg/mL) | 10 µM | 25 µM (≈ 10.1 µg/mL) | 25 µM (≈ 10.1 µg/mL) | 2.5 µM (≈ 1.01 µg/mL) | 17.6 ±0.8 | < 0.1 µM | 100 ± 1% | 25 µM (≈ 10.1 µg/mL) | – | – | – | – | – | – | –
3 | NC(=O)c1c(F)ccc(OCc2nc3cc(Cl)cnc3s2)c1F [PC190723, reference compound] | 2.5 µM | < 0.1 µM | 10 µM (≈ 3.56 µg/mL) | 5 µM (≈ 1.78 µg/mL) | – | 1 µM | – | – | 5 µM (≈ 1.78 µg/mL) | – | < 0.1 µM | – | 5 µM (≈ 1.78 µg/mL) | < 0.1 µM | – | – | – | – | – | –
4 | NC(=O)c1c(F)ccc(OCc2cccc(Cl)c2)c1F [Compound 18, 3-[(3-Chlorobenzyl)oxy]-2,6-difluorobenzamide] | 10 µM | 1.3 ± 0.1 µM | ≥ 100 µM | 100 µM (≈ 29.8 µg/mL) | – | 50 µM | – | – | 25 µM (≈ 7.44 µg/mL) | – | – | – | 100 µM (≈ 29.8 µg/mL) | – | 90 ± 7% | – | – | – | – | –
5 | CCC[C@@H](COc1ccc(F)c(C(N)=O)c1F)Nc1cccc(C(F)(F)F)c1 [(S)-26] | > 10 µM | 3.8 ± 0.2 µM | 100 µM (≈ 40.2 µg/mL) | 100 µM (≈ 40.2 µg/mL) | – | 100 µM | – | – | 50 µM (≈ 20.1 µg/mL) | – | 7 µM | – | – | – | – | 4.9 ± 0.2 | 10–20 fold | – | – | –
6 | NC(=O)c1c(F)ccc(OCc2cccc(C(F)(F)F)c2)c1F [Compound 20, 2,6-Difluoro-3-{[3-(trifluoromethyl)benzyl]oxy}benzamide] | 10 µM | 0.7 ± 0.2 µM | 50 µM (≈ 16.6 µg/mL) | 50 µM (≈ 16.6 µg/mL) | 25 µM (≈ 8.28 µg/mL) | 50 µM | 25 µM (≈ 8.28 µg/mL) | 25 µM (≈ 8.28 µg/mL) | 25 µM (≈ 8.28 µg/mL) | – | 0.7 ± 0.2 µM | – | 100 µM (≈ 33.1 µg/mL) | – | – | – | – | 84 ± 5% | – | –
7 | NC(=O)c1c(F)ccc(OCCNc2cccc(C(F)(F)F)c2)c1F [Compound 25, 2,6-Difluoro-3-(2-{[3-(trifluoromethyl)phenyl]amino}ethoxy)benzamide] | 5 µM | 1.9 ± 0.2 µM | 100 µM (≈ 36 µg/mL) | 100 µM (≈ 36 µg/mL) | – | 50 µM | – | – | 10 µM (≈ 3.6 µg/mL) | – | 0.3 µM | – | 100 µM (≈ 36 µg/mL) | – | 88 ± 1% | – | – | – | 4.8 ± 0.1 | 27.4 ±0.9
